{"source": "ChEMBL document CHEMBL5647693", "about": "“Molecular basis underlying resistance to Mps1/TTK inhibitors” (Oncogene, 2016)", "assay_in_all_cases": "cells", "format_in_all_cases": "functional, cell-based", "key": {"DLD-1 [1]": {"tested_on": "DLD-1", "details": "Homo sapiens, DLD-1, 120 h"}, "HCT-116 [2]": {"tested_on": "HCT-116", "details": "Homo sapiens, HCT-116, 120 h"}, "U2OS": {"tested_on": "U2OS", "details": "Homo sapiens, 120 h"}, "HeLa [3]": {"tested_on": "HeLa", "details": "Homo sapiens, 120 h"}, "DLD-1 [4]": {"tested_on": "DLD-1", "details": "Homo sapiens, DLD-1, 120 h", "remark": "listed apart in the source"}, "HeLa [5]": {"tested_on": "HeLa", "details": "Homo sapiens, 120 h", "remark": "listed apart in the source"}, "HeLa [6]": {"tested_on": "HeLa", "details": "Homo sapiens, 120 h", "remark": "listed apart in the source"}, "HeLa [7]": {"tested_on": "HeLa", "details": "Homo sapiens, 120 h", "remark": "listed apart in the source"}, "HCT-116 [8]": {"tested_on": "HCT-116", "details": "Homo sapiens, HCT-116, 120 h", "remark": "listed apart in the source"}, "HCT-116 [9]": {"tested_on": "HCT-116", "details": "Homo sapiens, HCT-116, 120 h", "remark": "listed apart in the source"}, "HCT-116 [10]": {"tested_on": "HCT-116", "details": "Homo sapiens, HCT-116, 120 h", "remark": "listed apart in the source"}, "DLD-1 [11]": {"tested_on": "DLD-1", "details": "Homo sapiens, DLD-1, 120 h", "remark": "listed apart in the source"}}}
{"compound": "CCc1cccc(CC)c1NC(=O)c1nn(C)c2c1CCc1cnc(Nc3ccc(C(=O)NC4CCN(C)CC4)cc3OC(F)(F)F)nc1-2", "values": [{"measurement": "IC50", "setting": "DLD-1 [1]", "value": 165, "unit": "nM"}, {"measurement": "IC50", "setting": "HCT-116 [2]", "value": 154, "unit": "nM"}, {"measurement": "IC50", "setting": "U2OS", "value": 153, "unit": "nM"}, {"measurement": "IC50", "setting": "HeLa [3]", "value": 1330, "unit": "nM"}, {"measurement": "IC50", "setting": "DLD-1 [4]", "value": 1020, "unit": "nM"}, {"measurement": "IC50", "setting": "HeLa [5]", "value": 433, "unit": "nM"}, {"measurement": "IC50", "setting": "HeLa [6]", "value": "> 2000", "unit": "nM"}, {"measurement": "IC50", "setting": "HeLa [7]", "value": 1720, "unit": "nM"}, {"measurement": "IC50", "setting": "HCT-116 [8]", "value": 171, "unit": "nM"}, {"measurement": "IC50", "setting": "HCT-116 [9]", "value": 1620, "unit": "nM"}, {"measurement": "IC50", "setting": "HCT-116 [10]", "value": "> 2000", "unit": "nM"}, {"measurement": "IC50", "setting": "DLD-1 [11]", "value": 198, "unit": "nM"}]}
